Test results published in patent publication EP0299533B1, “High potency sweetening agents” (THE NUTRASWEET COMPANY (a Delaware corporation), priority 1987, dated 1989).
Where a name gives a salt, the structure may show the parent alone. Each block holds one compound with its values, some of them ahead of it.

How the values were obtained:
[1] = Taste test: compound was tasted for sweetness; format: in vivo
Description: A mixture of 5-aminomethyltetrazole (0.50 g, 5.05 mmol), sodium hydroxide (0.20 g, 5.00 mmol) and 1.5 ml of water was added to a solution of N-cyclooctyl-N′-(4-cyanophenyl)-S-methylisothiourea (1.52 g, 5.05 mmol) in 15 ml of absolute ethanol. The mixture was heated to 70° for 20 hours. After cooling, the solution was concentrated to dryness and the residue was dissolved in 20 ml of water. The resulting solution was washed with dichloromethane (3 x 20 ml) and then neutralized with a 1 N HCl solution to bring its pH to 7.5. The desired guanidine compound precipitated and was separated out by filtration to give 1.2 g (70%) of white solid. PMR (CD₃OD) δ 7.75 (d, J=8 Hz, 2H), 7.41 (d, J=8 Hz, 2H), 4.70 (s, 2H), 3.82 (m, 1H) and 1.96-1.46 (m, 14H). CMR (DMSO-D6) δ 158.3, 153.3, 144.0, 133.7, 122.0, 119.0, 105.5, 52.8, 37.8, 31.2, 26.8, 24.6 and 22.9. Analysis calculated for C₁₈H₂₄N₈ (0.6 H₂O): C, 59.52; H, 6.99; N, 30.85. Found: C, 59.38; H, 7.07; N, 31.18. The compound was tasted and was sweeet at a concentration of 10 ug/ml.
All the compounds presented in Examples 1 through 42 were tasted and were sweet.

[2] = Stability in aqueous sodium phosphate buffer at pH 3, percent remaining by HPLC; format: physicochemical; conditions: for half-life: phosphate buffer
Description: Compound 1 above was dissolved in an aqueous sodium phosphate buffer at a pH of 3 at a concentration of 30 µg/ml. The buffer was prepared by adding concentrated phosphoric acid to sodium phosphate […] until the pH was 3.0. This solution was then maintained at 90°C for 6 days. The percent of compound 1 remaining after 6 days was 98%. […] The half-life was estimated to be 177 days in this buffer at 90°C. The stability of the glycine derivative of this compound, i.e., 1′-N-[N-cyclooctylamino(4-cyanophenylimino)methyl]-glycine was determined in the same way as Cpd. 1 except at 70°C and 50°C instead of 90°C. […] The calculated half-life at 90°C is about 2 days.

Structure (SMILES): N#Cc1ccc(N=C(NCc2nnn[nH]2)NC2CCCCCCC2)cc1 [Example 1 HCl salt]
- taste when tasted ([1]; no concentration given): sweet

- remaining at 144 h ([2]; aqueous sodium phosphate buffer pH 3, 30 µg/ml, 90°C, 6 days, HPLC, read-out: percent of compound remaining after 6 days): 98%
- half-life ([2]; pH 3, buffer pH 3, 90°C, estimated): 177 days
Structure (SMILES): N#Cc1ccc(NC(=NCc2nnn[nH]2)NC2CCCCCCC2)cc1 [Example 1, 1'-N-[N-Cyclooctylamino (4-Cyanophenylimino)methyl]-5-Aminomethyltetrazole]
- concentration at which the compound was tasted and was sweet [1]: 10 µg/mL

Structure (SMILES): N#Cc1ccc(NC(=NCc2nnn[nH]2)NC2CC3CCC(=O)CC3C2)cc1 (stereo not drawn) [Example 42, 1′-N-[N′-2-Amino-6-oxo-cis-hydrindane (4-Cyanophenylimino)methyl]-5-Aminomethyltetrazole]
- concentration at which the compound was tasted and was sweet [1]: 100 µg/mL

- half-life ([2]; pH 3, buffer pH 3, 50°C): 13 days
- half-life ([2]; pH 3, buffer pH 3, 70°C): 5 days
Structure (SMILES): N#Cc1ccc(NC(=NCC(=O)O)NC2CCCCCCC2)cc1 [glycine derivative, 1′-N-[N-cyclooctylamino(4-cyanophenylimino)methyl]-glycine, reference compound]
